Patent US7858349B2, “Anti-cancer compounds” (The Regents of the University of Colorado, priority 1999, dated 2010)
Where two headings read alike, the source gives them in different places.

How the values were obtained:
SCLC strain SHP-77 = experiment: MTT assay for cell survival, SCLC SHP-77 in vitro; format: cell-based, human; conditions: ED50 for killing of SCLC strain SHP-77 in vitro, 4 days, 0 = no detectable activity
PC3 PC cells = experiment: Inhibition of PC3 tumor growth in vivo in nude mice; parameters: species or system athymic nude mice; key to PC3 In vivo % inhib.: an IC50 value of “0” represents no detectable anti-cancer activity for a drug in a given cell line; “Stim.” indicates the observation of a stimulatory activity on the growth of the cancer cell line; conditions: percent inhibition of tumor growth in nude mice; prostate cancer; i.p. 5 mg/kg/every second day or 10 mg/kg/every fourth day
Method: Compounds having high in vitro cytotoxic activity were tested against implanted tumors in vivo. Athymic nude mice were implanted subcutaneously with suspensions (2 million SHP-77 SCLC cells, 1 million A549 NSCLC cells or 1.5 million PC3 PC cells) in Matrigel suspension. On the eighth day after tumor implantation groups of 5 mice bearing implants were injected intraperitoneally with the compounds being tested at 5 mg/kg/every second day or at 10 mg/kg/every fourth day; control animals were injected with an equal volume of isotonic saline. Less soluble compounds were initially dissolved in dimethyl sulfoxide (DMSO) and diluted with medium. In those cases the control injections contained the same concentration of DMSO. Tumor size was measured with a caliper three times per week. Tumor volume was calculated by the formula: Volume(cc)=3.14×(length)×(width)^2/6 At autopsy tumors were removed and weighed. Tumor inhibition was calculated on both weight and measurement basis. In each Table, an IC50 value of “0” represents no detectable anti-cancer activity for a drug in a given cell line and “Stim.” indicates the observation of a stimulatory activity on the growth of the cancer cell line.

SMILES	IC50 (SCLC strain SHP-77; read-out: SCLC SHP-77 IC50)	PC3 In vivo % inhib. (PC3 PC cells)	IC50 (SCLC strain SHP-77; read-out: SHP-77 In vitro IC50)
O=C(N[C@@H]1CN2CCC1CC2)C(Cc1ccc(OCc2c(Cl)cccc2Cl)cc1)NC(=O)C(c1ccccc1)C1CCCCC1 (single isomer, unassigned) [M-1550 #1]	2.5 µM	36%	
O=C(N[C@@H]1CN2CCC1CC2)C(Cc1ccc(OCc2c(Cl)cccc2Cl)cc1)NC(=O)C(c1ccccc1)C1CCCCC1 (single isomer, unassigned) [M-1550 #2]	4 µM	Stim.	
CC1(C)CC(NC(=O)C(NC(=O)C=Cc2c(F)c(F)c(F)c(F)c2F)C2Cc3ccccc3C2)CC(C)(C)N1 (stereo not drawn) [Analog M-1052, F5c-Igl-Atmp]		27%	7.3 µM
CC1(C)CC(NC(=O)C(Cc2c(F)c(F)c(F)c(F)c2F)NC(=O)C=Cc2c(F)c(F)c(F)c(F)c2F)CC(C)(C)N1 (stereo not drawn) [Analog M-1054, F5c-F5F-Atmp]		47%	4.6 µM
CC1(C)CC(NC(=O)C(Cc2ccc(OCc3c(Cl)cccc3Cl)cc2)NS(=O)(=O)c2c(F)c(F)c(F)c(F)c2F)CC(C)(C)N1 (stereo not drawn) [Analog M-1092, F5BS-OC2Y-Atmp]		Stim.	14 µM
CC1(C)CC(NC(=O)C(Cc2ccc(OCc3c(Cl)cccc3Cl)cc2)NC(=S)Nc2c(F)c(F)c(F)c(F)c2F)CC(C)(C)N1 (stereo not drawn) [Analog M-1094, F5PT-OC2Y-Atmp]		52%	3.2 µM
CC1(C)CC(NC(=O)[C@@H](Cc2ccc(OCc3c(Cl)cccc3Cl)cc2)NC(=O)/C=C/c2c(F)c(F)c(F)c(F)c2F)CC(C)(C)N1 [Analog M-1108, F5c-D-OC2Y-Atmp]		46%	> 60 µM
CC1(C)CC(NC(=O)C(Cc2ccc(C#N)cc2)NC(=O)C=Cc2c(F)c(F)c(F)c(F)c2F)CC(C)(C)N1 (stereo not drawn) [Analog M-1110, F5c-PCNF-Atmp]		54%	0.9 µM
CC1(C)CC(NC(=O)C(Cc2ccc([N+](=O)[O-])cc2)NC(=O)C=Cc2c(F)c(F)c(F)c(F)c2F)CC(C)(C)N1 (stereo not drawn) [Analog M-1112, F5c-PNF-Atmp]		24%	30 µM
CC1(C)CC(NC(=O)C(Cc2c[nH]c3ccccc23)NC(=O)C=Cc2c(F)c(F)c(F)c(F)c2F)CC(C)(C)N1 (stereo not drawn) [Analog M-1114, F5c-Trp-Atmp]		28%	> 60 µM
CC1(C)CC(NC(=O)C(Cc2ccc(OCc3c(Cl)cccc3Cl)cc2)NC(=O)C(C2CCCCC2)C2CCCCC2)CC(C)(C)N1 (stereo not drawn) [Analog M-1116, Dca-OC2Y-Atmp]		19%	7.5 µM
CC1(C)CC(NC(=O)C(Cc2ccc(Br)cc2)NC(=O)C=Cc2c(F)c(F)c(F)c(F)c2F)CC(C)(C)N1 (stereo not drawn) [Analog M-1144, F5c-PBF-Atmp]		20%	7.2 µM
CC1(C)CC(NC(=O)C(Cc2ccc(F)cc2)NC(=O)C=Cc2ccco2)CC(C)(C)N1 (stereo not drawn) [Analog M-1154, 2-Fa-PFF-Atmp]		Stim	> 60 µM
O=C(C=Cc1c(F)c(F)c(F)c(F)c1F)NC(Cc1ccc(F)cc1)C(=O)NC1CCN(Cc2ccccc2)CC1 (stereo not drawn) [Analog M-1156, F5c-PFF-Abzp]		56%	7.5 µM
CC1(C)CC(NC(=O)C(Cc2ccc(-c3ccccc3)cc2)NC(=O)C(c2ccc(Cl)cc2)c2ccc(Cl)cc2)CC(C)(C)N1 (stereo not drawn) [Analog M-1244, Bcpa-Bip-Atmp]		59%	1.3 µM
O=C(NC(Cc1ccc2ccccc2c1)C(=O)N1CCC(N2CCCCC2)CC1)C(c1ccc(Cl)cc1)c1ccc(Cl)cc1 (stereo not drawn) [Analog M-1246, Bcpa-Nal-Pipp]		Stim	3.6 µM
O=C(C=Cc1c(F)c(F)c(F)c(F)c1F)NC(Cc1ccc(-c2ccccc2)cc1)C(=O)N1CCN(c2ccccn2)CC1 (stereo not drawn) [Analog M-1258, F5c-Bip-Pypz]		10%	48 µM
O=C(C=Cc1c(F)c(F)c(F)c(F)c1F)NC(Cc1ccc(-c2ccccc2)cc1)C(=O)N1CCN(c2ncccn2)CC1 (stereo not drawn) [Analog M-1260, F5c-Bip-Pmpz]		60%	10 µM
O=C(C=Cc1c(F)c(F)c(F)c(F)c1F)NC(Cc1ccc(-c2ccccc2)cc1)C(=O)N1CC2CC1CN2Cc1ccccc1 (stereo not drawn) [Analog M-1268, F5c-Bip-Bdbh]		36%	3 µM
O=C(/C=C/c1c(F)c(F)c(F)c(F)c1F)N[C@@H](Cc1ccc(OCc2c(Cl)cccc2Cl)cc1)C(=O)N1CCN(c2cccc(Cl)c2Cl)CC1 [Analog M-1578, F5c-OC2Y-Dcpp]		Stim.	
O=C(NC(Cc1ccc(OCc2c(Cl)cccc2Cl)cc1)C(=O)N1CCN(Cc2c(F)c(F)c(F)c(F)c2F)CC1)C(=Cc1ccccc1)c1ccccc1 (stereo not drawn) [Analog M-1734, Pcn-OC2Y-Pipz(F5b)]	24 µM		
CC1(C)CC(NC(=O)C(Cc2ccc(OCc3c(Cl)cccc3Cl)cc2)NC(=O)C(C)(C)C)CC(C)(C)N1 (stereo not drawn) [Analog M-1736, Piva-OC2Y-Atmp]	13 µM		

SMILES	IC50 (SCLC strain SHP-77; read-out: SCLC SHP-77 IC50)	PC3 In vivo % inhib. (PC3 PC cells)	IC50 (SCLC strain SHP-77; read-out: SHP-77 In vitro IC50)
COc1ccc2c(CC(=O)NC(Cc3ccc(OCc4c(Cl)cccc4Cl)cc3)C(=O)NC3CC(C)(C)NC(C)(C)C3)cc(=O)oc2c1 (stereo not drawn) [Analog M-1744, Mcoa-OC2Y-Atmp]	7.1 µM		
CCC(C(=O)NC(Cc1ccc(OCc2c(Cl)cccc2Cl)cc1)C(=O)NC1CC(C)(C)NC(C)(C)C1)C1CCCCC1 (stereo not drawn) [Analog M-1746, Chbu-OC2Y-Atmp]	1.6 µM		
CC(C)(C)CC(=O)NC(Cc1ccc(OCc2c(Cl)cccc2Cl)cc1)C(=O)NC1CC(C)(C)NC(C)(C)C1 (stereo not drawn) [Analog M-1748, tBua-OC2Y-Atmp]	7.1 µM		
CO[C@](C(=O)NC(Cc1ccc(OCc2c(Cl)cccc2Cl)cc1)C(=O)NC1CC(C)(C)NC(C)(C)C1)(c1ccccc1)C(F)(F)F (stereo partly drawn) [Analog M-1750, (S)-MTPA-OC2Y-Atmp]	4.2 µM		
CO[C@@](C(=O)NC(Cc1ccc(OCc2c(Cl)cccc2Cl)cc1)C(=O)NC1CC(C)(C)NC(C)(C)C1)(c1ccccc1)C(F)(F)F (stereo partly drawn) [Analog M-1752, (R)-MTPA-OC2Y-Atmp]	4 µM		
CC1(C)CC(NC(=O)C(Cc2ccc(OCc3c(Cl)cccc3Cl)cc2)NC(=O)C(c2ccc(Cl)cc2)c2ccc(Cl)cc2)CC(C)(C)N1 (stereo not drawn) [Analog M-1754, Bcpa-OC2Y-Atmp]	1.5 µM		
CC1(C)CC(NC(=O)C(Cc2cc(I)c(OCc3c(Cl)cccc3Cl)c(I)c2)NC(=O)C(=Cc2ccccc2)c2ccccc2)CC(C)(C)N1 (stereo not drawn) [Analog M-1760, Pcn-OCIY-Atmp]	2 µM		
CC1(C)CC(NC(=O)C(Cc2cc(I)c(OCc3c(Cl)cccc3Cl)c(I)c2)NC(=O)C(c2ccc(Cl)cc2)c2ccc(Cl)cc2)CC(C)(C)N1 (stereo not drawn) [Analog M-1762, Bcpa-OCIY-Atmp]	3 µM		
CC1(C)CC(NC(=O)C(Cc2ccc(-c3ccccc3)cc2)NC(=O)C(=Cc2ccccc2)c2ccccc2)CC(C)(C)N1 (stereo not drawn) [Analog M-1764, Pcn-Bip-Atmp]	2.5 µM		
CC1(C)CC(NC(=O)C(Cc2ccc(-c3ccccc3)cc2)NC(=O)C(Oc2ccc(Cl)cc2)Oc2ccc(Cl)cc2)CC(C)(C)N1 (stereo not drawn) [Analog M-1766, Bcpoa-Bip-Atmp]	2 µM		
CC1(C)CC(NC(=O)C2Cc3ccccc3CN2C(=O)C(=Cc2ccccc2)c2ccccc2)CC(C)(C)N1 (stereo not drawn) [Analog M-1770, Pcn-Tic-Atmp]	5.4 µM		
CC1(C)CC(NC(=O)C(Cc2ccc(OCc3c(Cl)cccc3Cl)cc2)NC(=O)C=Cc2ccc(-c3ccccc3)cc2)CC(C)(C)N1 (stereo not drawn) [Analog M-1776, Pcin-OC2Y-Atmp]	1.4 µM		
Cc1ccccc1C=CC(=O)NC(Cc1ccc(OCc2c(Cl)cccc2Cl)cc1)C(=O)NC1CC(C)(C)NC(C)(C)C1 (stereo not drawn) [Analog M-1778, Mca-OC2Y-Atmp]	1.5 µM		
CC1(C)CC(NC(=O)C(Cc2ccc(OCc3c(Cl)cccc3Cl)cc2)NC(=O)CC=Cc2ccccc2)CC(C)(C)N1 (stereo not drawn) [Analog M-1780, Saa-OC2Y-Atmp]	1.8 µM		
CC1(C)CC(NC(=O)C(Cc2ccc(OCc3c(Cl)cccc3Cl)cc2)NC(=O)Cc2ccc(-c3ccccc3)cc2)CC(C)(C)N1 (stereo not drawn) [Analog M-1782, Bipa-OC2Y-Atmp]	3 µM		
CC1(C)CC(NC(=O)C(Cc2ccc(F)cc2)NC(=O)C(=Cc2ccccc2)c2ccccc2)CC(C)(C)N1 (stereo not drawn) [Analog M-1788, Pcn-PFF-Atmp]	2.3 µM		
CC1(C)CC(NC(=O)C(Cc2ccc(C(F)(F)F)cc2)NC(=O)C(=Cc2ccccc2)c2ccccc2)CC(C)(C)N1 (stereo not drawn) [Analog M-1790, Pcn-F3MF-Atmp]	2.2 µM		
CC1(C)CC(NC(=O)C(Cc2ccc(-c3ccccc3)cc2)NC(=O)Cc2ccc(-c3ccccc3)cc2)CC(C)(C)N1 (stereo not drawn) [Analog M-1796, Bipa-Bip-Atmp]	1.5 µM		
CC(C)CC(NC(=O)OCC1c2ccccc2-c2ccccc21)C(=O)NC1CC(C)(C)NC(C)(C)C1 (stereo not drawn) [Analog M-1798, Fmoc-Leu-Atmp]	7.6 µM		
CC1(C)CC(NC(=O)C(Cc2ccc(OCc3c(Cl)cccc3Cl)cc2)NC(=O)OCC2c3ccccc3-c3ccccc32)CC(C)(C)N1 (stereo not drawn) [Analog M-1800, Fmoc-OC2Y-Atmp]	1.7 µM		
CC1(C)CC(NC(=O)C(Cc2ccc(OCc3c(Cl)cccc3Cl)cc2)NC(=O)C(F)(F)C(F)(F)C(F)(F)C(=O)O)CC(C)(C)N1 (stereo not drawn) [M-1098 #1, CHFB-OC2Y-Atmp]			> 60 µM
CC1(C)CC(NC(=O)C(Cc2ccc(OCc3c(Cl)cccc3Cl)cc2)NC(=O)C(F)(F)C(F)(F)C(F)(F)C(=O)O)CC(C)(C)N1 (stereo not drawn) [M-1098 #2, CHFB-OC2Y-Atmp]			6.8 µM
